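Tested at 5 concentrations; 48 h exposure; 96-well plates; endpoints linearly interpolated, else capped at highest concentration. The concentration for full growth arrest is given as TGI.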
Key:
Test in all cases: NCI tumour cell line growth inhibition, 48 h
SNB-75 CNS = system: SNB-75 CNS
NCI-H226 lung = system: NCI-H226 lung
U251 CNS = system: U251 CNS
K-562 leukemia = system: K-562 leukemia
T-47D breast = system: T-47D breast
OVCAR-4 ovarian = system: OVCAR-4 ovarian
CAKI-1 renal = system: CAKI-1 renal
SW-620 colon = system: SW-620 colon
OVCAR-8 ovarian = system: OVCAR-8 ovarian
COLO 205 colon = system: COLO 205 colon
SK-OV-3 ovarian = system: SK-OV-3 ovarian
SF-295 CNS = system: SF-295 CNS
KM12 colon = system: KM12 colon
SK-MEL-28 melanoma = system: SK-MEL-28 melanoma
HOP-62 NSCLC = system: HOP-62 NSCLC
NCI-H522 lung = system: NCI-H522 lung
HL-60(TB) leukemia = system: HL-60(TB) leukemia
HT29 colon = system: HT29 colon
HCT-15 colon = system: HCT-15 colon
HCC-2998 colon = system: HCC-2998 colon
EKVX NSCLC = system: EKVX NSCLC
OVCAR-5 ovarian = system: OVCAR-5 ovarian
MDA-MB-231 breast = system: MDA-MB-231 breast
SK-MEL-2 melanoma = system: SK-MEL-2 melanoma
A549 NSCLC = system: A549 NSCLC
DU-145 prostate = system: DU-145 prostate
ACHN renal = system: ACHN renal
UO-31 renal = system: UO-31 renal
MDA-MB-435 = system: MDA-MB-435
LOX IMVI melanoma = system: LOX IMVI melanoma
UACC-257 melanoma = system: UACC-257 melanoma
NCI/ADR-RES ovarian = system: NCI/ADR-RES ovarian
OVCAR-3 ovarian = system: OVCAR-3 ovarian
HCT-116 colon = system: HCT-116 colon
SF-268 CNS = system: SF-268 CNS
SR leukemia = system: SR leukemia
MDA-N = system: MDA-N
NCI-H23 lung = system: NCI-H23 lung
RPMI-8226 leukemia = system: RPMI-8226 leukemia
BT-549 breast = system: BT-549 breast
NCI-H460 lung = system: NCI-H460 lung
IGROV1 ovarian = system: IGROV1 ovarian
UACC-62 melanoma = system: UACC-62 melanoma
SNB-19 CNS = system: SNB-19 CNS
MOLT-4 leukemia = system: MOLT-4 leukemia
SK-MEL-5 melanoma = system: SK-MEL-5 melanoma
TK-10 renal = system: TK-10 renal
HS 578T breast = system: HS 578T breast
786-0 renal = system: 786-0 renal
MCF7 breast = system: MCF7 breast
RXF 393 renal = system: RXF 393 renal
SN12C renal = system: SN12C renal
M14 melanoma = system: M14 melanoma
CCRF-CEM leukemia = system: CCRF-CEM leukemia
PC-3 prostate = system: PC-3 prostate
MALME-3M melanoma = system: MALME-3M melanoma
HOP-92 NSCLC = system: HOP-92 NSCLC
SF-539 CNS = system: SF-539 CNS

Measured: TGI

COc1ccccc1C(=O)NO
not listed: MALME-3M melanoma | HOP-92 NSCLC | SF-539 CNS
> 100 µM: all other assays above

CC(=O)OCC1OC(c2c(OC(C)=O)cc(C)c3c(=O)cc(/C(C(C)=O)=C(\C)O)oc23)C(OC(C)=O)C(OC(C)=O)C1OC(C)=O (configuration not stated)
not listed: LOX IMVI melanoma
> 100 µM: all other assays above

Oc1ccc2c3c1OC1c4[nH]ncc4C[C@H]4[C@@H](C2)N(CC2CC2)CC[C@]314 (some centres not stated)
not listed: SW-620 colon | SF-539 CNS
> 100 µM: all other assays above

NC(CCOCCP(=O)(O)CCC1C=CC=CC1)C(=O)O (configuration not stated)
not listed: NCI-H226 lung | HOP-62 NSCLC | 786-0 renal | MALME-3M melanoma
> 100 µM: all other assays above

Source: PubChem BioAssay (NCI)
